Measurements reported in US20200164100A1, “SURGICAL METHODS EMPLOYING PURIFIED AMPHIPHILIC PEPTIDE COMPOSITIONS” (priority 2013, published 2020).

Test system: signal transduction system of living organisms
Assay: Cell culture experiments on bioactivity of the main constituent peptide
Type: cell-based
Conditions: data not shown

## CH3CO-(Arg-Ala-Asp-Ala)4-NH2
  bioactivity by acting on the signal transduction system of living organisms: does not exhibit bioactivity
